Assay results as given in PMC5772648, “Targeted NUDT5 inhibitors block hormone signaling in breast cancer cells” (Nature Communications, 2018).

Columns and labels:
[1] = target: T1, NUDT5 in intact HL-60 cells (Homo sapiens, UniProt Q9UKK9); test: intact cell CETSA; type: cell-based; conditions: 20 µM, 83 °C
T1 construct: endogenous in cells; host or cells: HL-60
Protocol: For CETSA experiments with cells treated in culture, 1 × 10^6 HL-60 were treated with DMSO (0.1 % v/v final) or 20 µM compound for 3 h at 37 °C and 5% CO2 in a humidified incubator. T47D^WT cells were treated instead with 80 µM TH1659, 15 µM TH5423/5424 and 1.5 µM TH5427. The cells were harvested, washed twice with PBS and resuspended in TBS with protease inhibitors, as above. Heating was identical as before, except that immediately following heating, the cell suspensions were snap frozen in a dry ice/ethanol bath and freeze-thawed, as previously, to lyse cells. Centrifugation at 20 000 × g for 20 min at 4 °C removed cellular debris and protein aggregates, and lysates were prepared for western blotting.

[2] = test system: T47D cells; test: cell viability by resazurin; type: cell-based; conditions: 72 h
Protocol: Cell viability was assessed by resazurin[9]. 5000 HL-60 cells (or 1000 U-2 OS/2000 T47D cells) were seeded per well on a 96-well plate. The following morning, compounds (or the equivalent amount of DMSO) were added to obtain the final concentrations indicated and the cells were incubated at 37 °C for 72 h with resazurin added at 0.02 mg/mL for the last 2–6 h. Resorufin fluorescence was detected at […] with a Hidex Sense fluorescent plate reader. Viability curves were fit using the sigmoidal dose-response (variable slope) function in GraphPad Prism 7.

[3] = target: T2, NUDT5 in HL-60 cells (Homo sapiens, UniProt Q9UKK9); test: isothermal dose-response fingerprint CETSA (ITDRFCETSA); type: cell-based; conditions: 20 to 0.06 µM
T2 construct: endogenous in cells; host or cells: HL-60
Protocol: Treatments, heating and lysis procedures for ITDRFCETSA were performed identically to those for CETSA experiments, except NUDT5 inhibitors were added to cells at serial dilutions from 20 to 0.06 µM. Curves were fit by sigmoidal dose-response (variable slope) to derive EC50 values in GraphPad Prism 7.

[4] = test system: nuclear ATP production in T47D^WT cells; test: nuclear ATP visualization by bioluminescence (Nuc-luc reporter) after R5020; type: cell-based; conditions: 10 nM R5020
Protocol: (§1) For hormone and inhibitor treatments, normal T47D^WT cells or cells containing a single copy of luciferase under the control of the mouse mammary tumor virus (MMTV) promoter (T47D^M) were used[23]. Prior to hormone induction, cells were grown in phenol red-free RPMI medium supplemented with 10% dextran-coated charcoal-treated FBS (DCC/FBS). After 16 h in serum-free conditions, cells were pre-incubated with DMSO (vehicle) or NUDT5 inhibitor for 2 h at the indicated dose before addition of R5020 (10 nM) or vehicle (ethanol, EtOH) for the allotted time.
T47D^WT cells were seeded in RPMI in black-walled 96-well plates and transfected using Lipofectamine 2000® (Invitrogen, manufacturer’s instructions) with the nuclear-targeted luciferase constructs (Nuc-luc FRTTO[53]) at a final concentration of 50 ng DNA/well for 48 h. 16 h prior to hormone (R5020, 10 nM) exposure, cells were synchronized by serum starvation. Bioluminescence was activated by addition of 100 µl D-luciferin (1 mg/mL water, Sigma) and ATP was quantified using an IVIS system (Xenogen Corp).

[5] = target: T3, NUDT5 in HL-60 cell lysates (Homo sapiens, UniProt Q9UKK9); test: cell lysate CETSA (HT-CETSA); type: binding; conditions: 20 µM, 83 °C
T3 construct: endogenous in cells; host or cells: HL-60
Protocol: Target engagement in cells was determined by the cellular thermal shift assay (CETSA)[29]. Briefly, cell lysate thermal shift assays were performed with 1 × 10^6 HL-60 cells per temperature/condition. Cells were collected and washed once with PBS and resuspended in TBS with protease inhibitor cocktail (Mini cOmplete, EDTA-free, Roche) at 60 µL/1 × 10^6 cells. The cells were then aliquoted and lysed by freeze-thawing three times with 3-min incubations (3x, 3 min.+3 min.) using an ethanol/dry ice bath and water bath at 37 °C. The lysates were then centrifuged at 20,000×g for 20 min at 4 °C to remove cellular debris. Supernatants were then transferred to PCR strip tubes and treated with 0.5 µL DMSO (0.8% v/v final) or 20 µM inhibitor for 20 min at room temperature. Lysates with compounds were heated at the indicated temperature in a Veriti Thermal Cycler (Applied Biosystems) for 3 min, then cooled for another 3 min at room temperature. They were then centrifuged at 20 000 × g for 20 min at 4 °C to pellet protein aggregates and 45 µL was removed and prepared for western blotting analysis.

[6] = test system: histone H1 displacement in T47D cells; test: histone H1 displacement by chromatin immunoprecipitation after R5020; type: cell-based; conditions: 30 min R5020
Protocol: as §1
ChIP assays were performed using a histone H1-specific antibody, AE4 (Abcam)[54]. 1 × 10^7 T47D^M cells (plated and treated with hormone and/or inhibitor, as described above) were cross-linked for 10 min with 1% formaldehyde. Lysates were sonicated (Biorupter sonicator, Diagenode) resulting in DNA fragments with a size range of 200-300 bp. […] The resultant eluted DNA was quantified by Qubit 3.0 Fluorometer (Life Technologies) and qPCR (LightCycler FastStart DNA Master SYBR Green I, Roche). The fold enrichment of target sequences in the immunoprecipitated (IP) compared to input (I) fractions were calculated using the comparative Ct method (2^Ct(IP)−Ct(I)). […]

| Structure (SMILES) | NUDT5 stabilization in intact cells [1] | toxicity in T47D cells [2] | ITDRFCETSA dose-dependent stabilization [3] | nuclear luminescence (nuclear ATP) after R5020 ([4]; 15 µM) | NUDT5 stabilization in cell lysates [5] | histone H1 displacement after R5020 ([6]; 15 µM) | EC50 ([3]; read-out: ITDRFCETSA apparent EC50) [µM] | nuclear luminescence (nuclear ATP) after R5020 ([4]; 1.5 µM) | histone H1 displacement after R5020 ([6]; 1.5 µM) |
| --- | --- | --- | --- | --- | --- | --- | --- | --- | --- |
| CCN1CCN(c2nc3c(c(=O)n(C)c(=O)n3C)n2Cc2nnc(-c3ccc(Cl)c(Cl)c3)o2)CC1 [TH5424] | stabilized NUDT5 to nearly the same levels as observed in the 37 °C DMSO control | generally non-toxic when used below 20 µM | could also dose-dependently stabilize NUDT5, however much higher concentrations were required | strong luminescence was observed | showed the most stabilization of NUDT5 in cell lysates | moderate effects |  |  |  |
| Cn1c(=O)c2c(nc(N3CCNCC3)n2Cc2nnc(-c3ccc(Cl)c(Cl)c3)o2)n(C)c1=O [TH5427] | stabilized NUDT5 to nearly the same levels as observed in the 37 °C DMSO control | generally non-toxic when used below 20 µM |  |  | showed the most stabilization of NUDT5 in cell lysates |  | 2.1 | marked reduction in nuclear luminescence | inhibited histone H1 displacement |
